{"source": "patent EP4623928A1", "about": "“GLP-1R ANTAGONISTS FOR THE TREATMENT OF CANCER” (Fiorina, Paolo, priority 2024, dated 2025)", "key": {"[1]": {"tested_on": "mitogen-stimulated murine splenocytes", "assay": "IFN-γ ELISpot assay on anti-CD3/anti-CD28 stimulated splenocytes", "assay_type": "cell-based, C57BL/6 mice", "conditions": "Exe-9 added to Exe-4, 0.1, 1 or 10 nM, 24 hours", "experimental": "An ELISPOT assay was used to measure the number of IFN-γ-producing cells according to the manufacturer's protocol (BD Biosciences) as previously performed by our group (39). To test the role of GLP-1R-driven immunity on the anti-CD3/28 non-autoimmune specific response, 1×10^6 splenocytes isolated from C57BL/6 mice were cultured in a microwell plate (BD Biosciences) coated with IFN-y capture antibody (Ab) in the presence of the following soluble anti-CD3 and anti-CD28 at 0,5ug/ml for 24 hours. Exe-4 and/or Exe-4+Exe-9-39 at concentrations of 0.1, 1 or 10 nM were added to the culture. After 24 hours, bound secondary Ab was visualized using HRP-streptavidin and the AEC substrate kit (BD Biosciences). Spots were counted using an Immunospot analyzer (Cellular Technology Ltd., Cleveland, OH) and expressed as the number of cytokine-producing spots per 1×10^6 cells. After 24hours, ELISpot plates were developed and acquired on an ELISpot reader, as previously described."}, "CD4^+ and CD8^+ T cells": {"tested_on": "CD4^+ and CD8^+ T cells", "assay": "Cell death and proliferation of CD4+ and CD8+ T cells in splenocytes activated with anti-CD3/anti-CD28 (FACS)", "assay_type": "cell-based, C57BL/6 mice"}, "islet allografts": {"tested_on": "islet allografts", "assay": "Murine islet allotransplantation (BALB/c islets into STZ-treated C57BL/6 mice)", "assay_type": "in vivo", "experimental": "Pancreatic islets from BALB/c mice were isolated by collagenase digestion and density gradient separation as previously described (33, 34). Subsequently, four to five hundred islets were inoculated under the renal capsule of each C57BL/6 recipient rendered diabetic with streptozotocin (STZ) (200 mg/kg, administered i.p. Sigma-Aldrich). Islet transplantation success was confirmed by glycaemia normalization. Rejection of islet allografts was defined as blood glucose levels >250 mg/dl for at least 2 consecutive days (35). Treatment modalities were the following: transplanted mice were intraperitoneally injected according to the following protocols: 1) Exendin-4 (Exe-4) (Amylin Pharmaceuticals, San Diego, CA -USA) 0.2pg twice/day for two weeks after transplant; 2) Exe-4 0.2pg twice/day from the day before until two weeks after transplant; 3) Exendin-4 2µg twice/day from the day before until two weeks after transplant; 4) Exendin-4 2µg twice/day + Exendin-9-39 (Exe-9) (Sigma-Aldrich) 2µg twice/day from the day before until two weeks after transplant; 5) Exendin-4 2µg twice/day from the day before until two weeks after transplant + Rapamycin 0.1mg/die for two weeks; 6) saline 0.5ml twice/day for two weeks. The follow-up of the transplanted mice was for 100 days."}, "Cardiac allografts": {"tested_on": "Cardiac allografts", "assay": "Murine cardiac allotransplantation (BALB/c hearts into C57BL/6 mice)", "assay_type": "in vivo", "experimental": "Cardiac allografts from BALB/c mice were transplanted intra-abdominally in C57BL/6 mice using microsurgical techniques as described (31). Rejection was determined as complete cessation of cardiac contractility and was confirmed by direct visualization. Transplanted mice were intraperitoneally injected according to the following protocols: 1) Exendin-4 (Exe-4) (Amylin Pharmaceuticals, San Diego, CA - USA) 0.2pg twice/day for two weeks after transplant; 2) Exe-4 0.2pg twice/day from the day before until two weeks after transplant; 3) Exe-4 2µg twice/day from the day before until two weeks after transplant; 4) Exe-4 2µg twice/day + Exendin-9-39 (Exe-9) (Sigma-Aldrich) 2µg twice/day from the day before until two weeks after transplant; 5) Exe-4 2µg twice/day from the day before until two weeks after transplant + Rapamycin 0.1mg/die for two weeks; 6) saline 0.5ml twice/day for two weeks."}, "[2]": {"tested_on": "MC38 colorectal cancer cells", "assay": "Colorectal tumour model (MC38 cells injected into the distal posterior rectum)", "assay_type": "in vivo, C57BL/6 mice", "experimental": "Female C57BL/6 mice were anesthetized with 100 mg/kg of ketamine and 50 mg/kg of xylazine. Next, by using a 29-gauge syringe, 2×10^5 MC38 cells were injected submucosally into the distal posterior rectum in a final volume of […], as described previously (36, 37). MC38-injected mice were randomly assigned into 2 groups: (i) Exe-9-treated group (n=8), where all mice received an intraperitoneal injection of 2 µg of Exendin-9-39 (Exe-9) starting by Day1 for a total of 14 days; (ii) untreated-group (n=6), where all mice received an IP injection of PBS starting by day 1 and for a total of 14 days. Tumour growth was visually monitored daily. After animals' sacrifice, tumours were measured by a digital calliper measuring tumour length, width, and height and were weighted using a digital scale. Procedures involving mice wereb conformed to institutional guidelines in agreement with national and international law and were approved by the ethics committee by the Ministry of Health."}, "[3]": {"conditions": "co-administration Exe-4 2µg twice/day + Exe-9 2µg twice/day"}, "[4]": {"conditions": "splenic, Exe-9 co-administration with Exe-4"}, "[5]": {"conditions": "2 µg of Exe-9 once a day for 14 days, vs untreated"}, "[6]": {"conditions": "Exe-9-treated group vs untreated"}}}
{"substance": "Exendin-9-39 [Exe-9]", "values": [{"measurement": "effect of Exe-9 on the Exe-4-induced reduction of IFN-y producing cells", "setting": "[1]", "result": "significantly hampered the overseen immunoregulatory effect of Exe-4"}, {"measurement": "effect of Exe-9 on Exe-4-induced cell death", "setting": "CD4^+ and CD8^+ T cells; Exe-9 added to Exe-4, anti-CD3/anti-CD28 activated splenocytes", "result": "reduced the effect"}, {"measurement": "percentages of proliferating (or cell trace positive) CD4^+ and CD8^+ T cells", "setting": "CD4^+ and CD8^+ T cells; addition of antagonist Exe-9 to Exe-4, anti-CD3/CD28 Abs (Fig. 13D-E)", "result": "No differences"}, {"measurement": "effect of Exe-9 on the beneficial effects of Exe-4 (islet allograft survival)", "setting": "islet allografts; [3]", "result": "partly abolished"}, {"measurement": "graft infiltration (Hematoxylin and eosin staining)", "setting": "islet allografts; islet allograft at day 14, co-administration of Exe-9 with Exe-4", "result": "restored the graft infiltration"}, {"measurement": "CD8^+ effector cell number", "setting": "islet allografts; [4]", "result": "restored CD8^+ effector cell number"}, {"measurement": "Tregs", "setting": "islet allografts; [4]", "result": "did not affect Tregs"}, {"measurement": "effect of Exe-9 on the beneficial effects of Exe-4 (heart allograft survival)", "setting": "Cardiac allografts; [3]", "result": "partly abolished"}, {"measurement": "effect of Exe-9 on the Exe-4-induced decrease of graft infiltration", "setting": "Cardiac allografts; day-7 heart allograft, Exe-9 co-administration with Exe-4", "result": "abolished"}, {"measurement": "effect of Exe-9 on the Exe-4-induced decrease of CD4^+ and CD8^+ effector T cells", "setting": "Cardiac allografts; [4]", "result": "reverted"}, {"measurement": "tumour size", "setting": "[2]; 2 µg of Exe-9 once a day for 14 days, intraperitoneal, vs untreated (PBS)", "result": "significantly reduced"}, {"measurement": "colon length", "setting": "[2]; [5]", "result": "no differences"}, {"measurement": "mesenteric lymph nodes volume", "setting": "[2]; [5]", "result": "significantly reduced"}, {"measurement": "spleen weight", "setting": "[2]; [5]", "result": "no differences"}, {"measurement": "CD3^+ and CD8^+ effector memory T cells within the spleen and mesenteric lymph nodes", "setting": "[2]; [6]", "result": "no major differences"}, {"measurement": "tumor infiltration of CD3^+ T cells (FACS)", "setting": "[2]; [6]", "result": "increased infiltration"}, {"measurement": "tumor infiltration of activated effector memory CD8^+ T cells (FACS)", "setting": "[2]; [6]", "result": "increased infiltration"}, {"measurement": "intratumoral infiltration of CD3^+ T cells (pathological examination)", "setting": "[2]; Exe-9-treated group vs untreated, immunohistochemistry", "result": "significant intratumoral infiltration"}]}
